Reference: US8076324B2, “Di(hetero)arylcyclohexane derivatives, their preparation, their use and pharmaceutical compositions comprising them” (Sanofi-Aventis, priority 2007, dated 2011)
Counter-ions that a name gives are not always drawn.

Legend:
[1] = biological target: T1, myocardial ATP-sensitive potassium channel (SUR2A/Kir6.2) (UniProt Q61743+Q63563); assay: Rubidium efflux test on HEK293 cells transfected with SUR2A and Kir6.2 (myocardial action); type: cell-based, SUR2A from the rat, Kir6.2 from the mouse; details: HEK293 cells transfected with SUR2A/Kir6.2; KATP channels opened by rilmakalim; 25 min incubation; read-out: IC50 values for the inhibition of the rubidium efflux
T1 construct: expressed in transfected cells
Experimental: 1) Action on the SUR2A/Kir6.2 potassium channel (myocardial action) The action of the compounds on the ion transport through the myocardial ATP-sensitive potassium channel (SUR2A/Kir6.2) was determined in the rubidium efflux test system described below on human embryonic kidney cells HEK293 which were transfected with the components SUR2A and Kir6.2 (cf. Weyermann et al., Naunyn-Schmiedeberg's Arch. Pharmacol. 369, 374-381 (2004)).
The HEK293 cells were cultured at 37° C. in a humidified air atmosphere with 7% carbon dioxide in minimal essential medium with Earle's salts and L-glutamine (MEM, Gibco), which was supplemented with 10% fetal calf serum and zeozin (0.36 mg/ml) and geneticin (0.75 mg/ml). The transfection of the cells and the preparation of a cell line with stable expression of Kir6.2 from the mouse (accession number AF037313) and SUR2A from the rat (accession number D83598/L40624) were carried out as described in Giblin et al., J. Biol. Chem. 274, 22652-22659 (1999).
60 000 transfected cells per well were inoculated into a poly-D-lysine-coated 96-well microtiter plate (Greiner #650 201). After incubation for 24 h at 37° C., the cells were washed three times with buffer 1 (150 mM NaCl, 2 mM CaCl2, 0.8 mM NaH2PO4, 1 mM MgCl2, 5 mM glucose, 25 mM HEPES, pH=7.4). Subsequently, the buffer solution was replaced by 100 μl of rubidium loading buffer (buffer 1 with 5.4 mM RbCl) and the cells were incubated for a further 3 h at 37° C. The rubidium loading buffer was then removed by washing the cells three times with 200 μl each of potassium chloride wash buffer (buffer 1 with 5.4 mM KCl). After addition of the test substances (70 μl; dissolved in potassium chloride wash buffer with addition of DMSO), the KATP channels of the cells were opened by addition of 70 μl of rilmakalim (2 μM) (cf. Krause et al., Pflügers Arch. 429, 625-635 (1995)) and the cells were incubated at 37° C. for 25 min. Subsequently, the cell supernatants were transferred to a new 96-well microtiter plate and the cells were lyzed by addition of 200 μl of lysis buffer (buffer 1 with 1% Triton X-100). The concentrations of Rb^+ in the cell supernatant and in the cell lyzate were measured by means of atomic absorption spectroscopy using an Al 1200 apparatus (Aurora Instruments Ltd.).
The Rb^+ efflux rate was calculated as [Rb^+SN]/[Rb^+total], wherein [Rb^+SN] is the amount of Rb^+ in the cell supernatant and [Rb^+total] is the sum of the amounts of Rb^+ in the cell supernatant and cell lyzate. IC50 values for the inhibition of the rubidium efflux were calculated with the aid of the Hill equation.

T1 sequence (Q63563 whole entry): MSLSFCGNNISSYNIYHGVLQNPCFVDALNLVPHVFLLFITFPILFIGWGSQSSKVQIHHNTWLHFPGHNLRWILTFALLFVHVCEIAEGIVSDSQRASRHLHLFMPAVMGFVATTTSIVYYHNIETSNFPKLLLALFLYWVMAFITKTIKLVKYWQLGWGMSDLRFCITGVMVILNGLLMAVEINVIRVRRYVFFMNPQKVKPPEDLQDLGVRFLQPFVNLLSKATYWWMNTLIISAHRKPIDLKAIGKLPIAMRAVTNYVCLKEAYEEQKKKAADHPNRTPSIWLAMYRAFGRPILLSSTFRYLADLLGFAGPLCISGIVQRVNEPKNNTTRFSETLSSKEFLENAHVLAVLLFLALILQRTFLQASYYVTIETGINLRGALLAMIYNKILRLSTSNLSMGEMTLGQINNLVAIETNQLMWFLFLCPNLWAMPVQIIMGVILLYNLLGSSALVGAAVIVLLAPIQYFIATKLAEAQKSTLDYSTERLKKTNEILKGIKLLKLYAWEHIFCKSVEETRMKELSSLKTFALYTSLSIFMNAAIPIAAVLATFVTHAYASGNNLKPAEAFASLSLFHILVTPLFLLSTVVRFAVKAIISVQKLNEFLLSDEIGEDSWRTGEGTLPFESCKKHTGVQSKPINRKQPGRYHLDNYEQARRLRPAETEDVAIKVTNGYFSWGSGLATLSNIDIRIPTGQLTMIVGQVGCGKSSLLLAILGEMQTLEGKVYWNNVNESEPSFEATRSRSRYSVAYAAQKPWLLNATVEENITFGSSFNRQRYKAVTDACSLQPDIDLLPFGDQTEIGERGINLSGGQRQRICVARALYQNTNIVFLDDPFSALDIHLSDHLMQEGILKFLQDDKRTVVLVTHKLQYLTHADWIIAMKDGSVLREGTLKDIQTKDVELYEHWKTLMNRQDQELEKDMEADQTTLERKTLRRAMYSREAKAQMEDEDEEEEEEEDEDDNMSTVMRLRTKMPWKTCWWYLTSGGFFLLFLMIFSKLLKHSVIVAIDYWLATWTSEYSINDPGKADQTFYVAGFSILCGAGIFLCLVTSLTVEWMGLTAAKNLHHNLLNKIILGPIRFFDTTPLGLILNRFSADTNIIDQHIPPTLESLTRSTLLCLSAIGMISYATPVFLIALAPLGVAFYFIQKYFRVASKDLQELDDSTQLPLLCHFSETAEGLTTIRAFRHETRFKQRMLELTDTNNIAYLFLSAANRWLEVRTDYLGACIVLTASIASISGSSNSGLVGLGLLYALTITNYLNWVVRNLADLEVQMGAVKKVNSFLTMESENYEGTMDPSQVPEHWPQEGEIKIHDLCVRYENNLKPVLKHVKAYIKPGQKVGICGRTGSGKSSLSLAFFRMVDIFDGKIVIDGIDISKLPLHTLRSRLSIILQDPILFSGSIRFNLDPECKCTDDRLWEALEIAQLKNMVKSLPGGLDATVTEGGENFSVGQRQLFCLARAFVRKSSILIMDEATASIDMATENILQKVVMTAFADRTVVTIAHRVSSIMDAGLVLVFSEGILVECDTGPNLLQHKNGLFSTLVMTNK
T1 sequence (Q61743 whole entry): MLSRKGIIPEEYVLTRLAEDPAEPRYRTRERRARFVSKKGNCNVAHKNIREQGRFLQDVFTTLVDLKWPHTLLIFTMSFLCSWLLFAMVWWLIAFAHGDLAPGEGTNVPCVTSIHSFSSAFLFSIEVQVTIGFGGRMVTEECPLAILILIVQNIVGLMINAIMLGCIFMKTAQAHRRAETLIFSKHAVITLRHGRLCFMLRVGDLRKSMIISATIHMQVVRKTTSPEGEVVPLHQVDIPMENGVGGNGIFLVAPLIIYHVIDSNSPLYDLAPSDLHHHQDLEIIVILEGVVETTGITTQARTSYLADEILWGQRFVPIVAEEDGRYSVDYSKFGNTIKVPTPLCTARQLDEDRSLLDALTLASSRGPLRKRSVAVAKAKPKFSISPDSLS

| melting point [°C] | IC50 [1] [nM] | SMILES |
| --- | --- | --- |
| 198 |  | O=C(O)[C@]1(c2ccc(F)cc2)CC[C@@](OCC2CC2)(c2cn(CC3CC3)c(-c3ccccc3)n2)CC1 |
| 227 |  | CS(=O)(=O)c1cccc2c1nc([C@]1(OCC3CC3)CC[C@](C(=O)O)(c3ccccc3)CC1)n2CC1CC1 |
| 218 | < 1000 | Cc1nc([C@]2(OCC3CC3)CC[C@](C(=O)O)(c3ccccc3)CC2)n(CC2CC2)c1-c1ccccc1 [Example 426, Cis-4-Cyclopropylmethoxy-4-(1-cyclopropylmethyl-4-methyl-5-phenyl-1H-imidazol-2-yl)-1-phenylcyclohexanecarboxylic Acid] |
| 198 | < 1000 | CS(=O)(=O)c1cccc(-c2nc([C@]3(Oc4ccccc4)CC[C@@](C(=O)O)(c4ccccc4)CC3)n(CC3CC3)n2)c1 [Example 463, Trans-4-[2-Cyclopropylmethyl-5-(3-methanesulfonylphenyl)-2H-[1,2,4]triazol-3-yl]-4-phenoxy-1-phenylcyclohexanecarboxylic Acid] |
| 199 | < 1000 | Cc1nc([C@]2(OCC3CC3)CC[C@](C(=O)O)(c3ccccc3)CC2)n(CC2CC2)c1-c1ccc(F)cc1 [Example 427, Cis-4-Cyclopropylmethoxy-4-[1-cyclopropylmethyl-5-(4-fluorophenyl)-4-methyl-1H-imidazol-2-yl]-1-phenylcyclohexanecarboxylic Acid] |
| 170 | < 1000 | Cc1nc([C@]2(Oc3ccccc3)CC[C@](C(=O)O)(c3ccccc3)CC2)n(CC2CC2)c1Cl [Example 400, Cis 4-(5-Chloro-1-cyclopropylmethyl-4-methyl-1H-imidazol-2-yl)-4-phenoxy-1-phenylcyclohexanecarboxylic Acid] |
| 184 | < 1000 | Cc1nc([C@]2(OCC3CC3)CC[C@](C(=O)O)(c3ccc(F)cc3)CC2)n(CC2CC2)c1Cl [Example 363, Cis-4-(5-Chloro-1-cyclopropylmethyl-4-methyl-1H-imidazol-2-yl)-4-cyclopropylmethoxy-1-(4-fluorophenyl)cyclohexanecarboxylic Acid] |
| 206 |  | Cc1nc([C@]2(OCC3CC3)CC[C@](C(=O)O)(c3ccccc3)CC2)n(CC2CC2)c1S(C)(=O)=O (as salt: sulfonic acid salt) |
| 152 | < 1000 | CS(=O)(=O)n1c2ccccc2cc1[C@]1(OCC2CC2)CC[C@](C(=O)O)(c2ccccc2)CC1 [Example 440, Cis-4-Cyclopropylmethoxy-4-(1-methanesulfonyl-1H-indol-2-yl)-1-phenylcyclohexanecarboxylic Acid] |
| 85 | < 1000 | O=C(O)[C@]1(c2ccccc2)CC[C@@](Oc2ccc(C(F)(F)F)cc2)(c2nc(-c3ccccc3)n(CC3CC3)n2)CC1 [Example 474, Cis-4-(1-Cyclopropylmethyl-5-phenyl-1H-[1,2,4]triazol-3-yl)-1-phenyl-4-(4-trifluoromethylphenoxy)cyclohexanecarboxylic Acid] |
| 245 | < 1000 | Cc1c(C#N)nc([C@]2(OCC3CC3)CC[C@](C(=O)O)(c3ccc(F)cc3)CC2)n1CC1CC1 [Example 418, Cis-4-(4-Cyano-1-cyclopropylmethyl-5-methyl-1H-imidazol-2-yl)-4-cyclopropylmethoxy-1-(4-fluorophenyl)cyclohexanecarboxylic Acid] |
| 187 | < 1000 | Cc1cnc([C@]2(OCC3CC3)CC[C@](C(=O)O)(c3ccc(F)cc3)CC2)n1CC1CC1 [Example 357, Cis-4-Cyclopropylmethoxy-4-(1-cyclopropylmethyl-5-methyl-1H-imidazol-2-yl)-1-(4-fluorophenyl)cyclohexanecarboxylic Acid] |
| 159 |  | O=C(O)[C@]1(c2ccc(F)cc2)CC[C@](Oc2ncccn2)(c2ccc(F)cn2)CC1 |
| 237 | < 1000 | O=C(O)[C@]1(c2ccc(F)cc2)CC[C@](Oc2ccccc2)(c2ccc(F)cn2)CC1 [Example 345, Trans-1-(4-Fluorophenyl)-4-(5-fluoropyridin-2-yl)-4-phenoxycyclohexanecarboxylic Acid] |
| 242 | < 1000 | Cc1c(S(C)(=O)=O)nc([C@]2(OCC3CC3)CC[C@](C(=O)O)(c3ccccc3)CC2)n1CC1CC1 [Example 422, Cis-4-Cyclopropylmethoxy-4-(1-cyclopropylmethyl-5-methyl-4-methanesulfonyl-1H-imidazol-2-yl)-1-phenylcyclohexanecarboxylic Acid] |
| 158 | < 1000 | Cc1c(Br)nc([C@]2(Oc3ccccc3)CC[C@](C(=O)O)(c3ccc(F)cc3)CC2)n1CC1CC1 [Example 403, Cis-4-(4-Bromo-1-cyclopropylmethyl-5-methyl-1H-imidazol-2-yl)-4-phenoxy-1-(4-fluorophenyl)cyclohexanecarboxylic Acid] |
| 190 | < 1000 | Cc1nc([C@]2(OCC3CC3)CC[C@](C(=O)O)(c3ccc(F)cc3)CC2)n(CC2CC2)c1Br [Example 354, Cis-4-(5-Bromo-1-cyclopropylmethyl-4-methyl-1H-imidazol-2-yl)-4-cyclopropylmethoxy-1-(4-fluorophenyl)cyclohexanecarboxylic Acid] |

| melting point [°C] | IC50 [1] [nM] | SMILES |
| --- | --- | --- |
| 228 | < 1000 | Cc1nc([C@]2(OCC3CC3)CC[C@](C(=O)O)(c3ccccc3)CC2)n(CC2CC2)c1C#N [Example 419, Cis-4-(5-Cyano-1-cyclopropylmethyl-4-methyl-1H-imidazol-2-yl)-4-cyclopropylmethoxy-1-phenylcyclohexanecarboxylic Acid] |
| 211 |  | O=C(O)[C@]1(c2ccc(F)cc2)CC[C@](OCC2CC2)(c2ccc(F)cn2)CC1 |
|  | < 1000 | CC(C)(C)S(=O)(=O)c1cc(F)cc([C@]2(OCC3CC3)CC[C@](C(=O)O)(c3ccc(F)cc3)CC2)c1 [Example 304-3, Cis-4-Cyclopropylmethoxy-4-[3-fluoro-5-(2-methylpropane-2-sulfonyl)phenyl]-1-(4-fluorophenyl)cyclohexanecarboxylic Acid] |
|  | < 1000 | O=C(O)[C@]1(c2ccccc2)CC[C@](OCC2CC2)(c2nc(-c3ccccc3)cs2)CC1 [Example 333-2, Trans-4-Cyclopropylmethoxy-1-phenyl-4-(4-phenylthiazol-2-yl)cyclohexanecarboxylic Acid] |
|  | < 1000 | O=C(O)[C@]1(c2ccccc2)CC[C@](OCC2CC2)(c2nccn2CC2CC2)CC1 [Example 493, Trans-Cyclopropylmethoxy-4-(1-cyclopropylmethyl-1H-imidazol-2-yl)-1-phenylcyclohexanecarboxylic Acid] |
|  | < 1000 | CCCOC1(c2cc(F)ccc2SC)CCC(C(=O)O)(c2ccc(F)cc2)CC1 (centres unmarked) [Example 248] |
|  | < 1000 | COC1(c2ccc(F)cc2)CCC(C(=O)O)(c2ccc(C)cc2)CC1 (centres unmarked) [Example 239] |
|  | < 1000 | Cc1c(F)cc(S(C)(=O)=O)cc1[C@]1(OCC2CC2)CC[C@](C(=O)O)(c2ccccc2)CC1 [Example 480, Cis-4-Cyclopropylmethoxy-4-(3-fluoro-2-methyl-5-methanesulfonylphenyl)-1-phenylcyclohexanecarboxylic Acid] |
|  | < 1000 | CC(C)(C)c1nc([C@]2(OCC3CC3)CC[C@](C(=O)O)(c3ccccc3)CC2)n(CC2CC2)c1Cl [Example 393] |
|  | < 1000 | O=C(O)C1(c2ccc(F)cc2)CCC(OCC2CC2)(c2ccc(F)cc2)CC1 (centres unmarked) [Example 249] |
|  | < 1000 | O=C(O)C1(c2ccccc2)CCC(O)(c2cccc(C(F)(F)F)c2)CC1 (centres unmarked) [Example 102] |
|  | < 1000 | COC1(c2ccc(F)cc2)CCC(C(=O)O)(c2ccc(OC(F)(F)F)cc2)CC1 (centres unmarked) [Example 236] |
|  | < 1000 | O=C(O)C1(c2ccccc2)CCC(O)(c2ccc(C(F)(F)F)cc2)CC1 (centres unmarked) [Example 101] |
|  | < 1000 | O=C(O)[C@]1(c2ccccc2)CC[C@](OCC2CC2)(c2ncc(C(F)(F)F)n2CC2CC2)CC1 [Example 379] |
|  | < 1000 | CCOC1(c2cccc(S(C)(=O)=O)c2)CCC(C(=O)O)(c2ccccc2)CC1 (centres unmarked) [Example 167] |
|  | < 1000 | CS(=O)(=O)c1cc(F)ccc1C1(OCC2CC2)CCC(C(=O)O)(c2ccc(F)cc2)CC1 (centres unmarked) [Example 253] |
